The source of these data is paper PMC5762338, “A novel orally available Syk/Src/Jak2 inhibitor, SKLB-850, showed potent anti-tumor activities in B cell lymphoma (BCL) models” (Oncotarget, 2017).

Molecules are shown by their SMILES.

The subject of test [1] is B-cell lymphoma samples from BCL patients. As to the kind of experiment: Apoptosis of B-cell lymphoma samples from BCL patients, FCM. As to conditions: BCL patient samples, 24 hours, concentration not given. The format is cell-based, Human. From the text: The ability of inducing apoptosis of SKLB-850 in tumor tissues was examined by TUNEL. […] We then examined apoptotic tumor cells in B-cell lymphoma samples from BCL patients after SKLB-850 treatment by FCM. As shown in Figure 6C and 6F, SKLB-850 induced cell apoptosis (14.10 ± 4.04%), and R788 had the same effect but relatively weak (7.60 ± 0.52%). To better understand the mechanism of antitumor activities in vivo, Ki67 and CD20 in mouse tumor tissues were detected by immunohischemistry; Ki67 was a marker of proliferation in the diagnosis of tumors and CD20 was highly expressed in B cell lymphomas.
Figure 6 SKLB-850 inhibited tumor growth by inducing apoptosis of tumor tissues from the Ramos model and BCL samples from patients (A and D) TUNEL immunofluorescent staining of tumor tissues from the Ramos model (n-6 mice per group). (B and E) Immunohistochemical staining analyses of Ki67 and CD20 in tumor tissues from the Ramos model. (C and F) Apoptosis of tumor cells from the BCL patients induced by SKLB-850. Tumor tissues from BCL patients were treated with a series of concentrations of SKLB-850 or R788, and stained with AnnexinV-FITC and propidium iodide, then analyzed with a flow cytometer. […]
Human lymph nodes were collected aseptically from B-cell lymphoma patients (n = 4 for both groups, Supplementary Table 1). […] Cell apoptosis was analyzed with a flow cytometer (BD FACS Calibur, BD, USA).

The subject of test [2] is HBL-1 cells. Put plainly: Apoptosis assay, AnnexinV-FITC/propidium iodide FCM. The format is cell-based, Human. To be noted: HBL-1, treatment for 18 hours (legend: 24 hours). The procedure: Figure 1 The chemical structure of SKLB-850 and its anti-tumor effects in vitro (A) The chemical structure of SKLB-850. (B and C) Apoptosis of Ramos cells induced by SKLB-850. Cells were treated by vehicle, R788 or indicated concentrations of compounds. […]
The ability of SKLB-850 to induce apoptosis of BCL cells was analyzed by FCM. […]
Flow cytometry (FCM) assays were performed to investigate the apoptosis of Ramos and HBL-1 cells induced by SKLB-850. […] Cell apoptosis was analyzed with a flow cytometer (BD FACSCalibur, BD, USA).

`CN1CCN(c2ccc(Nc3ncc(F)c(Nc4ccc(Cl)cc4C(N)=O)n3)cc2)CC1` [SKLB-850, 5-chloro-2-((5-fluoro-2-((4-(4-methylpiperazin-1-yl)phenyl)amino)pyrimidin-4-yl)amino) benzamide] yielded a cell apoptosis in test [1] of 14.10 ± 4.04%. Moreover, the “percentages of apoptotic cells (in words)” value in test [2] was “dose-dependently increased”.
As for `COc1cc(Nc2ncc(F)c(Nc3ccc4c(n3)N(COP(=O)(O)O)C(=O)C(C)(C)O4)n2)cc(OC)c1OC` [R788, reference compound], the cell apoptosis in test [1] amounted to 7.60 ± 0.52%. In addition, the “percentages of apoptotic cells (in words)” value in test [2] was “induced apoptosis but obviously much weaker”.
